Results: ChEMBL document CHEMBL5252556, “Fuligopyrones from the Fruiting Bodies of Myxomycete Fuligo septica Offer Short-Term Protection from Abiotic Stress Induced by UV Radiation” (J Nat Prod, 2023)

Columns and labels:
[1] = Cytotoxicity against mouse NS-1 cells measured after 72 hrs; type: toxicity, cell-based
Staphylococcus aureus = test: Antibacterial activity against Staphylococcus aureus ATCC 25923 measured after 24 hrs; type: functional
Bacillus subtilis = test: Antibacterial activity against Bacillus subtilis ATCC 6633 measured after 24 hrs; type: functional
Tritrichomonas foetus = test: Anti-protozoal Tritrichomonas foetus KV-1 measured after 24 hrs; type: functional
Candida albicans = test: Antifungal activity against Candida albicans ATCC 10231 measured after 24 hrs; type: functional
Eragrostis tef = test: Herbicidal activity against Eragrostis tef seed measured after 24 hrs; conditions: in Eragrostis tef
[2] = Cytotoxicity against […] NFF measured after 72 hrs; type: toxicity, cell-based; conditions: NFF cells
Saccharomyces cerevisiae = test: Antifungal activity against Saccharomyces cerevisiae ATCC 9763 measured after 24 hrs; type: functional

Question: Which IC50 at 72 h [1] does the source give for O=C(/C=C/C=C/c1ccc(O)cc1)NCCc1cc(O)c(Cl)c(=O)o1 here?
Answer: > 200 µM

Question: What about the MIC (Staphylococcus aureus) of the same molecule?
Answer: > 100 µg/mL

Question: And the MIC (Bacillus subtilis)?
Answer: > 100 µg/mL

Question: What about the LD99 (Tritrichomonas foetus) of the same molecule?
Answer: >100 µg/mL

Question: And the MIC (Candida albicans)?
Answer: > 200 µg/mL

Question: What about the MIC (Eragrostis tef) of the same molecule?
Answer: > 100 µg/mL

Question: What about the IC50 at 72 h [2] of the same molecule?
Answer: > 200 µM

Question: And the MIC (Saccharomyces cerevisiae)?
Answer: > 200 µg/mL

Question: What does the source list for O=C(/C=C/C=C/c1ccc(O)cc1)NCCc1cc(O)cc(=O)o1?
Answer: IC50 at 72 h [1]: > 200 µM; MIC (Staphylococcus aureus): > 100 µg/mL; MIC (Bacillus subtilis): > 100 µg/mL; LD99 (Tritrichomonas foetus): >100 µg/mL; MIC (Candida albicans): > 200 µg/mL; MIC (Eragrostis tef): > 100 µg/mL; IC50 at 72 h [2]: > 200 µM; MIC (Saccharomyces cerevisiae): > 200 µg/mL
